# Data as given in patent US20240318150A1, “METHODS FOR OXYFUNCTIONALIZATION OF VARIOUS SUBSTRATES USING BACTERIAL ENZYMES” (GECCO Biotech B.V., priority 2021, published 2024).
# Test system: T3G1
# Test: Substrate conversion (oxyfunctionalization) by purified enzyme T3G1 with H2O2
# Type: biochemical, Proteobacteria bacterium
# Settings: 1 mM substrate, 2 mM H2O2 (1 mM at start, to 2 mM after 90 min), 7 μM enzyme T3G1 (5 + 2 μM)
# Source text: This prompted us to test the representative enzyme T3G1 against a large panel of various substrates.
row,Compound,% conversion
1,CC=Cc1ccccc1 [β-methyl-styrene],86%
2,"CC(C)NCC(O)COc1cccc2ccccc12 (centres unmarked) [propanolol, reference compound]",5%
3,CC1=CCCC(C)(C)C1/C=C/C(C)O (stereo not drawn) [α-ionol],61%
4,C/C=C\C(=O)C1C(C)=CCCC1(C)C (stereo not drawn) [α-damascone],26%
5,CCCCCCCC/C=C\CCCCCCCC(=O)O [oleic acid],19%
6,CC(=O)/C=C/C1=C(C)CCCC1(C)C [trans-β-ionone],48%
7,C/C=C\CCCC [cis-2-heptene],81%
8,C=C(C)[C@@H]1CCC2=CCC[C@@H](C)[C@]2(C)C1 [valencene],3%
9,"C=CCCCC [Substrate 1-hexene, 1-hexene]",trace
10,"C=CCCCCCCC=C [1,9-decadiene]",15%
11,C1=C\CCCCCC/1 [cis-cyclooctene],83%
12,terpinene,73%
13,CC/C=C/CC [trans-3-hexene],40%
14,"C=CC(=C)C [2-methyl-1,3-butadiene]",trace
15,COc1cc(C)ccc1O [creosol],trace
16,C/C=C/CCC [trans-2-hexene],trace
17,C1=CCCCC1 [cyclohexene],32%
18,C[C@]12CCC(=O)C=C1CCC2=O [(S)-Hajos-Wiechert ketone],trace
19,CC/C=C/CCCC [trans-3-octene],99%

row,Compound,% conversion
1,CC(=O)/C=C/C1C(C)=CCCC1(C)C (stereo not drawn) [α-ionone],61%
2,(−)-carveol,4%
3,C/C=C/CCCCC [trans-2-octene],99%
4,C1=Cc2ccccc2C1 [indene],27%
5,C(=C\c1ccccc1)/c1ccccc1 [trans-stilbene],17%
6,"C=CCCCCC [Substrate 1-heptene, 1-heptene]",trace
7,"CC(=O)CCC1C(C)=CCCC1(C)C (stereo not drawn) [7,8-dihydro-α-ionone]",50%
8,CSc1ccccc1 [thioanisole],40%
9,"C=C(C)C1CC=C(C)CC1 (single isomer, unassigned; (+)) [(+)-limonene]",81%
10,C/C=C\CCC [cis-2-hexene],trace
11,C/C=C/C(=O)C1C(C)C=CCC1(C)C (centres unmarked) [δ-damascone],16%
12,"C=CCCCCCCCC [Substrate 1-decene, 1-decene]",13%
13,CC12CCC(=O)C=C1CCCC2=O (centres unmarked) [Wieland-miescher ketone],10%
14,C=Cc1ccccc1 [styrene],61%
15,CCC/C=C/CCC [trans-4-octene],99%
16,"C=CCCCCCC [Substrate 1-octene, 1-octene]",65%
17,C=C(C)CC [2-methyl-1-butene],trace
18,CCc1ccccc1 [ethylbenzene],trace

# Same assay, conditions: 1 mM substrate, 2 mM H2O2, 7 μM T3G1
% double epoxide,Compound,% ee (printed beside % conversion),"% cis (of product, printed beside % conversion)"
13 % double epoxide,"C=CCCCCCCC=C [1,9-decadiene]",–,–
–,CSc1ccccc1 [thioanisole],(74% ee),–
–,"C=C(C)C1CC=C(C)CC1 (single isomer, unassigned; (+)) [(+)-limonene]",–,(97.3% cis)
–,C=Cc1ccccc1 [styrene],(17% ee),–
